The NIST ThermoML archive (doi:10.1016/j.fluid.2007.09.028)

Assay: xn = mol fraction of the nth substance listed
Details: 101 kPa, Liquid

Clc1ccccc1 [chlorobenzene] + CCCCO
mass density [kg/m3]
Details | 288.15 K | 293.15 K | 298.15 K | 303.15 K | 308.15 K | 313.15 K
x2 = 0 | 1111.81 | 1106.43 | 1101.04 | 1095.64 | 1090.23 | 1084.82
x2 = 0.0491 | 1098.36 | 1092.97 | 1087.57 | 1082.16 | 1076.75 | 1071.34
x2 = 0.1013 | 1084.16 | 1078.81 | 1073.45 | 1068.07 | 1062.67 | –
x2 = 0.1492 | 1071.13 | 1065.83 | 1060.5 | 1055.16 | 1049.8 | 1044.42
x2 = 0.2004 | 1057.1 | 1051.85 | 1046.57 | 1041.28 | 1035.97 | 1030.63
x2 = 0.2501 | 1043.32 | 1038.12 | 1032.91 | 1027.68 | 1022.42 | 1017.14
x2 = 0.3 | 1029.41 | 1024.28 | 1019.13 | 1013.96 | 1008.76 | 1003.55
x2 = 0.3507 | 1015.11 | 1010.04 | 1004.96 | 999.858 | 994.721 | 989.562
x2 = 0.4 | 1001.06 | 996.06 | 991.039 | 985.993 | 980.92 | 975.825
x2 = 0.4502 | 986.537 | 981.622 | 976.686 | 971.72 | 966.72 | 961.715
x2 = 0.5 | 972.013 | 967.172 | 962.314 | 957.429 | 952.506 | 947.561
x2 = 0.5499 | 957.246 | 952.491 | 947.717 | 942.914 | 938.072 | 933.199
x2 = 0.5998 | 942.296 | 937.639 | 932.95 | 928.23 | 923.477 | 918.689
x2 = 0.6504 | 926.891 | 922.329 | 917.738 | 913.116 | 908.455 | 903.772
x2 = 0.7002 | 911.543 | 907.078 | 902.582 | 898.054 | 893.49 | 888.906
x2 = 0.749 | 896.297 | 891.927 | 887.529 | 883.097 | 878.634 | 874.13
x2 = 0.7995 | 880.209 | 875.948 | 871.658 | 867.339 | 862.977 | 858.585
x2 = 0.849 | 864.175 | 860.018 | 855.838 | 851.632 | 847.387 | 843.125
x2 = 0.9006 | 847.199 | 843.162 | 839.105 | 835.018 | 830.894 | 826.737
x2 = 0.9505 | 830.398 | 826.483 | 822.545 | 818.578 | 814.579 | 810.547
